These results are taken from US10369093B2, “Stable solution of hexamidine salts in alkanediol-water mixtures, with antimicrobial and skin-moisturising effect” (MINASOLVE GERMANY GMBH, priority 2015, dated 2019).

For data set [1] the following is noted: according to EP1477157B1; cited from earlier work.
The next data set deals with Pseudomonas aeruginosa. Kind of data set: Minimum inhibitory concentration, suspension test. The format is cell-based. To be noted: 3 days at 37° C. Here is the method: (§1) Minimal inhibitory concentrations against bacteria, fungi and yeasts were determined by means of a suspension test. For this purpose, nine-stage dilution series of the respective test substances were prepared in 1:1 mixtures of CASO broth and distilled water. For the tests with mushrooms and yeasts in each case 2% dextrose was added. Each microorganism was tested separately in a test tube containing 10 ml of said culture medium. To each tube was added 0.1 ml of a suspension containing 5×10^8 colony forming units (CFU) for bacteria and 1×10^7 CFU for fungi and yeasts, respectively. Each tube was incubated for 3 days at 37° C. (bacteria) or for 4 days at 30° C. (fungi and yeasts). The minimum inhibitory concentration was defined as the concentration at which no turbidity or other visible signs of microbial growth were observed after the end of the test period.

Another data set deals with Aspergillus brasiliensis. Kind of data set: Minimum inhibitory concentration, suspension test. Type of data set: cell-based. To be noted: 4 days at 30° C. How it is done: as §1
For another data set, the system named is Staphylococcus aureus. Kind of data set: Minimum inhibitory concentration, suspension test. Type of data set: cell-based. The following applies: 3 days at 37° C. How it is done:
as §1

The subject of another data set is Candida albicans. Kind of data set: Minimum inhibitory concentration, suspension test. To be noted: 4 days at 30° C. The format is cell-based. How it is done: as §1
For a further data set, the system named is Escherichia coli. Kind of data set: Minimum inhibitory concentration, suspension test. Type of data set: cell-based. To be noted: 3 days at 37° C. How it is done: as §1
Data set [2] deals with forearms of healthy volunteers (human skin). Kind of data set: Corneometry test for moisturizing effect. The format is in vivo. To be noted: 3% in H2O. How it is done: To test the moisturizing effect of various substances and mixtures, the test substances were diluted with distilled water to a concentration of 2-3%. The diluted solutions were applied to the forearms of healthy volunteers (number: 12, age: 19-64 years). Before and after the simple application, the skin moisture of the treated skin areas was measured instrumentally with the aid of a Corneometer CM825, combined with a Cutometer dual MPA 580 from Courage & Khazaka. All measurements were preceded by acclimatization of the subjects in a controlled environment (21° C.±1° C., 45%±10% humidity). The measurement results are given as a percentage change from the initial value after 1 h, 2 h, 4 h, 8 h and 24 h and are summarized in Table 4.

The conditions of data set [3]: BASF data sheet Elestab HP100; cited from earlier work.

SMILES strings stand for the structures.

`CCCCC(O)CO` (centres unmarked) [1,2-hexanediol]: the “C log P” value in data set [1] is “+0.25”.

With `CCCC(O)CO` (centres unmarked) [1,2-pentanediol], the “Minimal Inhibitory Concentration (MIC)” value in the data set with Pseudomonas aeruginosa is 2.5%. For the same molecule, the “Minimal Inhibitory Concentration (MIC)” value in the data set on Aspergillus brasiliensis amounted to 2.5%. Moreover, in the data set on Staphylococcus aureus, the “Minimal Inhibitory Concentration (MIC)” value is recorded as 4.0%. For the same molecule, the “Minimal Inhibitory Concentration (MIC)” value in the data set with Candida albicans was determined as 2.5%. In addition, the “Minimal Inhibitory Concentration (MIC)” value with Escherichia coli stood at 2.5%. Also, in data set [2], the “corneometry, % change compared to T0 after 1 h” value is recorded as “+18.8%”; the “corneometry, % change compared to T0 2 h” value is “+31.6%”; the “corneometry, % change compared to T0 4 h” value was “+37.7%”; the “corneometry, % change compared to T0 8 h” value is given as “+21.6%”. Moreover, the “corneometry, % change compared to T0 24 h” value in data set [2] is on record as “+13.1%”.

As for `OCCCCCCCO` [1,7-heptanediol], in data set [1], the “C log P” value is listed as “+0.46”.

As to `OCC(O)CO` [glycerin], in data set [2], the “corneometry, % change compared to T0 after 1 h” value was “+34.3%”; the “corneometry, % change compared to T0 2 h” value is reported as “+40.2%”; the “corneometry, % change compared to T0 4 h” value is “+39.5%”; the “corneometry, % change compared to T0 8 h” value is on record as “+29.9%”. For the same molecule, the “corneometry, % change compared to T0 24 h” value in data set [2] was “+17.5%”.

Consider `N=C(N)c1ccc(OCCCCCCOc2ccc(C(=N)N)cc2)cc1` [hexamidine diisethionate, 2-hydroxyethanesulfonic acid-4,4′-[1,6-hexanediylbis(oxy)]dibenzenecarboximidamide], for which the “Minimal Inhibitory Concentration (MIC)” value is reported as 0.1% in the data set with Pseudomonas aeruginosa; 0.0005% in the data set with Aspergillus brasiliensis; 0.0025% in the data set on Staphylococcus aureus; 0.01% in the data set with Candida albicans; 0.01% with Escherichia coli. The “compatible pH range” value in data set [3] is on record as 3-8.
